1 molecule from PMC5505994 (Scientific Reports, 2017) can be followed below.

The target in the experiment is T1, MbAhpC (Mycobacterium tuberculosis, UniProt P9WQB7).
T1 construct: gene ahpC
The settings on record: read-out: K m ± SD.

T1 sequence (P9WQB7 whole entry): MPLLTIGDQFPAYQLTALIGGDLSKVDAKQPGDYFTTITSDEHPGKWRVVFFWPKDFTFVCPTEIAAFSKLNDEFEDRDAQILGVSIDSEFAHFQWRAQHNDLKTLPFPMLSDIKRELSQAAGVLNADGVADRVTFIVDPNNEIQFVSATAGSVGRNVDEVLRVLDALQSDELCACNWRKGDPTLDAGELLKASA

As for `CC(C)(C)OO` [tert-butyl hydroperoxide], the Km turned out to be 2.23 ± 0.49 µM.
